Source: patent US6949516B2, “Dipeptide apoptosis inhibitors and the use thereof” (Cytovia, Inc., priority 1997, dated 2005)
Where a SMILES comes first, the peptide text is derived from it. The star is where a group is joined. Cbz = O=C(OCc1ccccc1)*; CH2F = FC*

How the values were obtained:
HeLa cells [1] = assay: Cell death assay with HeLa cells, qualitative (phase contrast microscopy), TNF-α/CHX challenge; format: cell-based; details: 24 hour incubation
Description: (§1) The cytoprotective properties of Cbz-Val-Asp(OMe)CH2F were tested using HeLa cells challenged with tumor necrosis factor-alpha (TNF-α) and cycloheximide (CHX). This is a well-characterized cell culture model of apoptosis which is commonly used to analyze anti-apoptotic agents. Two types of experiments were performed: a qualitative assessment of cell death by visualization of the cells using phase contrast microscopy; and a quantitative assessment of cell death using the fluorescent dye calcein AM.
For photomicroscopy, HeLa cells are seeded in 12-well multidishes at a density of 100,000 cells per well in Minimal Essential Medium containing 2 mM glutamine and 10% fetal bovine serum. 24 hours later the plating medium is removed and fresh medium is added containing the cytoprotective test compound at various concentrations. The cells are pre-incubated with test compound for 2 hours at 37° C. in a CO2 incubator and then TNF-α and CHX are added at final concentrations of 25 ng/mL and 30 μg/mL, respectively. After a 24 hour incubation period, the cells are examined visually for evidence of cell death based on cell shape and degree of adherence. Cells are considered dead if they have become rounded up and phase bright and have detached from the substratum. Cells are considered alive if they have retained their normal morphology and remain attached to the substratum.
All of these compounds are the methyl ester derivatives. […] At 50 μM, the related peptides BOC-Asp(OMe)-CH2F (FIG. 1C) and Cbz-Glu(OMe)-Val-Asp(OMe)-CH2F (FIG. 1E) are also protective.

[2] = test system: PARP cleavage in Jurkat cells; assay: Inhibition of PARP cleavage in antiFas-treated Jurkat cells (Example 22, Western blot); format: cell-based, human; details: antiFas-treated Jurkat cells
Source text: The cleavage of the enzyme poly(ADP)ribose polymerase (PARP) appears to occur in all cells in which the caspase proteolytic cascade is activated. For this reason, PARP cleavage is widely used as a biochemical marker for caspase-mediated apoptosis. The ability of a cytoprotective drug to block PARP cleavage is considered to be an indication of the drug's ability to inhibit the caspase proteolytic cascade and, in particular, CPP32 (caspase-3), the main PARP protease. The ability of Cbz-Val-Asp(OMe)-CH2F to inhibit PARP cleavage was examined during Fas-mediated apoptosis of Jurkat cells, a human T-cell line. This cell culture model of apoptosis is well-characterized and is known to involve activation of at least two caspases, caspase-3 (CPP32) and caspase-8 (FLICE/MACH).
For PARP cleavage assays, Jurkat cells were seeded at a density of 500,000 cells per well in six-well multidishes in RPMI 1640 medium containing 10% FBS. The cells were pre-incubated with Cbz-Val-Asp(OMe)-CH2F or other test compounds for 2 hours at 37° C. in a CO2 incubator and then a monoclonal antibody to Fas was added at a final concentration of 500 ng/mL. Incubation at 37° C. in a CO2 incubator was continued for an additional 4 hours. […] An amount of lysate corresponding to 10 to 20 μg of protein was loaded on a 7.5% SDS polyacrylamide gel and electrophoresed for 2 to 2.5 hrs at 25 mA. The protein was then transferred to a PVDF membrane, probed with a rabbit polyclonal antibody to PARP, and visualized using chemiluminescence.
Jurkat cells were pre-incubated with 0.5, 5, or 50 μM of the following compounds: Cbz-Val-Asp(OMe)-CH2F (compound 1); BOC-Asp(OMe)-CH2F (compound 5); Cbz-Asp-α-([2,6-dichlorobenzoyloxy]-methyl ketone) (compound 6), Cbz-Glu(OMe)-Val-Asp(OMe)-CH2F (compound 3), Cbz-Asp(OMe)-Glu(OMe)-Val-Asp(OMe)-CH2F (SEQ ID NO:1) (compound 2), Cbz-Ile-Glu(OMe)-Thr-Asp(OMe)-CH2F (SEQ ID NO:2) (compound 4), or Cbz-Val-Ala-Asp(OMe)-CH2F (compound 7). The cells were then treated with antiFas and processed for Western Blotting.

Caspase-3 = molecular target: T1, Caspase-3 (Homo sapiens, UniProt P42574); assay: Caspase-3 activity of the dipeptide inhibitors (Table III); format: biochemical
T1 sequence (P42574 29-175 limits assumed): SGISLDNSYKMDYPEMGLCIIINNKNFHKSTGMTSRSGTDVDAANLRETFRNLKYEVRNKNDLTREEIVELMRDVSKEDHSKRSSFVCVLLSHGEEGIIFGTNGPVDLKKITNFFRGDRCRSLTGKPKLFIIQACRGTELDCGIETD

HeLa cells [3] = assay: Effect of Z-VD-fmk on TNF-α-induced cell death in HeLa cells (calcein AM, Example 25); format: cell-based; details: below 50 μM (data not shown)
Description: Tumor necrosis factor alpha (TNF-α) can trigger apoptosis in a number of cell types by initiating the caspase cascade and its apoptosis inducing activity can be inhibited by peptide-based caspase inhibitors. However, high concentrations of the inhibitors (50 μM or greater) is required to have good anti-apoptotic effect. HeLa cells, a cell line commonly employed in TNF-α cell death studies, was used here to determine the anti-apoptotic potency of Z-VD-fmk.
HeLa cells were seeded in 48-well multidishes at a density of 50,000 cells per well 24 hours before treatment. They were then pre-incubated with varying concentrations of Z-VD-fmk for 2 hours and challenged with TNF-α (25 ng/mL) and cycloheximide (CHX; 30 μg/mL). The cultures were incubated for an additional 24 hours and dead cells were removed by two washes with PBS. The density of surviving cells was then measured by incubating each culture for 45 minutes with calcein AM, a profluorescent dye which is taken up by living cells and converted to a fluorescent product. The resulting data were expressed as % control values (control values were cells incubated with cycloheximide but without TNF-α).
Z-VD-fmk provided good cytoprotection at concentrations approaching 100 nM.

HeLa cells [4] = assay: Cell death assay with HeLa cells, quantitative (calcein AM), TNF-α/CHX challenge; format: cell-based
Description: as §1
For quantitative assays, the degree of cell survival in the presence of test compounds is analyzed quantitatively using the indicator dye calcein AM. This dye is taken up and converted to a fluorescent derivative by living cells; the amount of activated dye in each well can then be assayed in a fluorometric plate reader and the degree of fluorescence is used as a measure of the number of surviving cells. For these assays, HeLa cells are seeded in 48-well plates at a density of 25,000 cells per well in 0.4 mL of Minimal Essential Medium containing 2 mM glutamine and 10% fetal bovine serum. 24 hours later the plating medium is removed and 0.5 mL of fresh medium containing test compound at various concentrations is added. The cells are pre-incubated with test compound for 2 hours at 37° C. in a CO2 incubator and then TNF-α and CHX are added at final concentrations of 25 ng/mL and 30 μg/mL, respectively. After a 24 hour incubation period, the cultures are washed twice with serum-free, phenol red-free Ham's F12 to remove dead cells and 125 μL of Ham's F12 containing 8 μM calcein AM is added. […] The data are expressed as “Percent Control,” which is calculated by the following equation: Percent Control=(Calcein AM Signal in the Presence of Test Compound+TNF-α and CHX/(Calcein AM Signal in the Presence of CHX Only)×100% The use of CHX-treated cultures as controls, rather than untreated cultures, allows one to correct for the cytostatic effects of CHX. However, because CHX by itself is also a mild inducer of apoptosis in HeLa cells, strong anti-apoptotic drugs will give a Percent Control value greater than 100%.
Quantitative experiments using calcein AM, as described above, corroborate the results obtained by microscopic examination. FIGS. 4 and 5 illustrate the results of two such experiments where the cytoprotective properties of Cbz-Val-Asp(OMe)-CH2F (a) were compared to BOC-Asp(OMe)-CH2F (b) (FIG. 5) and Cbz-Asp(OMe)-Glu(OMe)-Val-Asp(OMe)-CH2F (SEQ ID NO:1) (c) (FIG. 4) at three concentrations (0.5, 5 and 50 μM). […] By contrast, Cbz-Val-Asp(OMe)-CH2F (a) is as effective a cytoprotectant at 0.5 μM as Cbz-Asp(OMe)-Glu(OMe)-Val-Asp(OMe)-CH2F (SEQ ID NO:1) […] is at 50 μM (FIG. 4).
In order to determine the effect of Cbz-Val-Asp(OMe)-CH2F at low doses, HeLa cells were treated with a range of concentrations from 0.05 μM to 1 μM.

Row | Compound | inhibition of PARP cleavage ([2]; 0.5 μM) | inhibition of PARP cleavage ([2]; 5 μM) | inhibition of PARP cleavage ([2]; 50 μM) | IC50 (Caspase-3) | other results
1 | COC(=O)CC[C@H](NC(=O)OCc1ccccc1)C(=O)N[C@H](C(=O)N[C@@H](CC(=O)OC)C(=O)CF)C(C)C [Cbz-Glu(OMe)-Val-Asp(OMe)-CH2F] | only marginally effective | effective inhibitors | effective inhibitors |  | cytoprotection of HeLa cells from apoptotic effects of TNF-α and CHX (microscopy) (HeLa cells [1]; 5 μM): less effective; cytoprotection of HeLa cells from apoptotic effects of TNF-α and CHX (microscopy) (HeLa cells [1]; 50 μM): protective
2 | Cbz-Ala-Asp-CH2F [Z- -Ala-Asp-fmk] |  |  |  | 3.5 µM | 
3 | O=C(O)C[C@H](NC(=O)[C@H](Cc1ccc(O)cc1)NC(=O)OCc1ccccc1)C(=O)CF [Z-L-Tyr-Asp-fmk, Z-Tyr-Asp-fmk] (Cbz-Tyr-Asp-CH2F) |  |  |  | 0.66 µM | 
4 | CC(C)[C@@H](C(=O)N[C@@H](CC(=O)O)C(=O)CF)N(C)C(=O)OCc1ccccc1 [Z-N-Me-L-Val-Asp-fmk, Z-N-Me-Val-Asp-fmk] |  |  |  | 1.3 µM | 
5 | COC(=O)CC[C@H](NC(=O)[C@H](CC(=O)OC)NC(=O)OCc1ccccc1)C(=O)N[C@H](C(=O)N[C@@H](CC(=O)OC)C(=O)CF)C(C)C [Z-DEVD-fmk] |  |  |  |  | cytoprotection against TNF-α-induced cell death (HeLa cells [3]): very ineffective
6 | COC(=O)CC(NC(=O)OC(C)(C)C)C(=O)CF (stereo not drawn) [BOC-Asp(OMe)-CH2F] | only marginally effective | effective inhibitors | effective inhibitors |  | protection of HeLa cells from TNF-α/CHX (calcein AM) (HeLa cells [4]; 0.5 μM): inactive; protection of HeLa cells from TNF-α/CHX (calcein AM) (HeLa cells [4]; 5 μM): effective cytoprotectant; protection of HeLa cells from TNF-α/CHX (calcein AM) (HeLa cells [4]; 50 μM): effective cytoprotectant; cytoprotection of HeLa cells from apoptotic effects of TNF-α and CHX (microscopy) (HeLa cells [1]; 5 μM): less effective; cytoprotection of HeLa cells from apoptotic effects of TNF-α and CHX (microscopy) (HeLa cells [1]; 50 μM): protective
7 | O=C(O)C[C@H](NC(=O)[C@@H]1CCCN1C(=O)OCc1ccccc1)C(=O)CF [Z-L-Pro-Asp-fmk, Z-Pro-Asp-fmk] (Cbz-Pro-Asp-CH2F) |  |  |  | 0.41 µM | 
8 | O=C(O)CC(NC(=O)C(Cc1cnc[nH]1)NC(=O)OCc1ccccc1)C(=O)CF [Z-L-His-Asp-fmk, Z-His-Asp-fmk] (Cbz-His-Asp-CH2F; configuration not given here) |  |  |  | 0.77 µM | 
9 | O=C(O)CC(NC(=O)OCc1ccccc1)C(=O)COC(=O)c1c(Cl)cccc1Cl (stereo not drawn) [Cbz-Asp-DCB, Cbz-Asp-α-([2,6-dichlorobenzoyloxy]methylketone)] | only marginally effective | only marginally effective | inhibited PARP cleavage completely |  | 
10 | CC(=O)N[C@@H](CC(=O)O)C(=O)N[C@@H](CCC(=O)O)C(=O)N[C@H](C(=O)N[C@H](C=O)CC(=O)O)C(C)C [Ac-DEVD-CHO] |  |  |  |  | cytoprotection against TNF-α-induced cell death (HeLa cells [3]): very ineffective
11 | COC(=O)C[C@H](NC(=O)[C@H](C)NC(=O)[C@@H](NC(=O)OCc1ccccc1)C(C)C)C(=O)CF [Cbz-Val-Ala-Asp(OMe)-CH2F] (Cbz-Val-Ala-Asp(OMe)-CH2F) | only marginally effective | effective inhibitors | effective inhibitors |  | cytoprotection of HeLa cells from TNF-α/CHX at low doses (HeLa cells [4]; concentration range 0.05 μM to 1 μM): no cytoprotection
12 | CC[C@H](C)[C@H](NC(=O)OCc1ccccc1)C(=O)N[C@@H](CCC(=O)OC)C(=O)N[C@H](C(=O)N[C@@H](CC(=O)OC)C(=O)CF)[C@@H](C)O [Cbz-Ile-Glu(OMe)-Thr-Asp(OMe)-CH2F] (Cbz-IE(OMe)TD(OMe)-CH2F) | only marginally effective | only marginally effective | inhibited PARP cleavage completely |  | 
13 | COC(=O)CC[C@H](NC(=O)[C@H](CC(=O)OC)NC(=O)OCc1ccccc1)C(=O)N[C@H](C(=O)N[C@@H](CC(=O)OC)C(=O)CF)C(C)C [Cbz-Asp(OMe)-Glu(OMe)-Val-Asp(OMe)-CH2F] | only marginally effective | only marginally effective | inhibited PARP cleavage completely |  | protection of HeLa cells from TNF-α/CHX (calcein AM) (HeLa cells [4]; 50 μM): only minimally effective; cytoprotection of HeLa cells from apoptotic effects of TNF-α and CHX (microscopy) (HeLa cells [1]; 5 μM): no cytoprotective properties; cytoprotection of HeLa cells from apoptotic effects of TNF-α and CHX (microscopy) (HeLa cells [1]; 50 μM): only marginally effective
